Values joined by “and” are separate entries in the source; they are usually repeats but may differ in a detail not shown here. Equal values may be shown once.
Experiments:
Type in all cases: cell-based
porcine oocytes [1] = assay: Experiment 1: meiotic resumption of porcine oocytes cultured in maturation medium with 1 mM dbcAMP
Procedure: (§1) Ovaries were collected from prepubertal gilts at a local slaughterhouse and transported to the laboratory at 30-35° C. Antral follicles (2-5 mm in diameter) were aspirated with an 18-gauge needle using vacuum suction (40 mm Hg). […] Oocytes were cultured in 4-well plates (Nunc, Roskilde, Denmark) containing 500 μl of each medium. TCM-199 (Gibco) supplemented with 3.05 mM D-glucose, 0.91 mM Na-pyruvate, 0.57 mM cysteine, 10 ng/ml epidermal growth factor (Sigma), 10 IU/ml eCG (Sioux Biochemicals, Sioux Center, Iowa), 10 IU/ml hCG (Intervet, Millsboro, Del.), and 10% (v:v) porcine follicular fluid was used as a basic maturation medium.
After culture for each period, degenerated oocytes with lysed cytoplasmic membranes were removed.

porcine oocytes [2] = assay: Experiment 2: maturation to metaphase II of porcine oocytes treated with dbcAMP for 20 h, then cultured without dbcAMP; conditions: 1 mM dbcAMP for 20 h
Procedure: as §1
Oocytes continued to be cultured for additional 4, 10, 16, and 22 h and examined for meiotic progression to the M II stage by staining with 5 μg/ml Hoechst 33342.

[3] = tested on: porcine embryos reconstituted with 42-h-matured oocytes; assay: Experiment 5: in vitro development of porcine nuclear transfer embryos reconstituted with 42-h-matured oocytes treated with dbcAMP
Procedure: as §1
At the end of maturation, cumulus cells were removed by vortexing with 0.1% (w:v) hyaluronidase (Sigma) and denuded oocytes were transferred into 100 μl of Hepes-buffered TCM-199 with the osmolarity adjusted to 300 mOsm by adding sorbitol supplemented with 7.5 μg/ml cytochalasin B (Sigma) and 10% FCS (manipulation medium). The first polar body and MII plate were removed by aspiration with a 15-μm inner diameter glass pipette. The oocytes had been previously stained in the manipulation medium supplemented with 5 μg/ml Hoechst 33342 (Sigma) for 20 min and confirmation of successful enucleation was achieved by visualizing the cytoplast and removed cytoplasm under ultraviolet light. After enucleation, a donor cell was inserted into the perivitelline space of each enucleated oocyte using the same glass pipette. Cell-oocyte complexes were washed in TCM-199 supplemented with 10% FCS, transferred to the same medium and kept in a CO2 incubator adjusted to 5% CO2 in air at 38.5° C. until fusion.
The chamber for fusion was a 100 mm dish filled with 15 ml of Zimmerman fusion medium, Zimmerman, et al., Electric field-induced cell-to-cell fusion. J Membr Biol 1982, 67: 165-182. Two stainless steel wires (100 μm diameter) were used as electrodes and they were attached to micromanipulators. The single cell-oocyte complex was sandwiched between the electrodes and oriented with the contact surface between the cytoplast and the donor cell perpendicular to the electrodes. The distance between the electrodes was about 100 μm. Membrane fusion was induced by applying a single direct current pulse of 250 V/mm for a duration of 20 μsec with a prepulse of alternating current field of 5 V, 1 MHz for 2 sec using an LF 101 Fusion Machine (TR Tech Co., Tokyo, Japan). Following the fusion pulse, the complexes were washed in G1.2 medium, Gandhi, et al., Substrate utilization in porcine embryos cultured in NCSU23 and G1.2/G2.2 sequential culture media, Mol Reprod Dev 2001, 58: 269-275 and cultured for a period of 1 h in 100 μl of the same medium. Fusion was then determined by microscopic examination.
At 3 h after fusion, fused embryos were washed once in Zimmerman fusion medium and then placed between 2 wire electrodes (1 mm apart) of the fusion chamber slide with 15 ml of the medium. Direct current pulses of 75 V/mm were applied twice to the embryos for a duration of 60 μsec at intervals of 5 sec. Activated embryos were incubated in 100 μl of G1.2 medium supplemented with 7.5 μg/ml cytochalasin B for 2 h after activation to prevent extrusion of polar bodies, Miyoshi, et al. (2000) (supra), and then transferred into G1.2 medium. After culture in G 1.2 medium for 3 days, the embryos were transferred into 100 μl of G2.2 medium, Gandhi, et al., (2001) (supra), and continued to be cultured. The embryos were examined for cleavage and blastocyst formation at 2 and 7 days of culture, respectively. At the end of the culture period, all blastocysts were counted for nuclei after Hoechst staining. The blastocysts were placed on slides with a drop of mounting medium consisting of glycerol and PBS (9: 1) containing 0.1 mg/ml Hoechst 33342. A cover slip was placed on the top of the blastocysts and the edge was sealed with fingernail polish. The numbers of nuclei were counted under ultraviolet light. […]

[4] = then 4 h additional culture without dbcAMP
[5] = then 10 h additional culture without dbcAMP
[6] = then 16 h additional culture without dbcAMP
[7] = then 22 h additional culture without dbcAMP
[8] = oocytes treated with 1 mM dbcAMP for 20 h, 42-h-matured, examined at 2 days of culture
[9] = oocytes treated with 1 mM dbcAMP for 20 h, 42-h-matured, examined at 7 days of culture
[10] = oocytes treated with 1 mM dbcAMP for 20 h, M II oocytes collected at 42 h of maturation

CCCC(=O)Nc1ncnc2c1ncn2[C@@H]1O[C@@H]2COP(=O)(O)O[C@H]2[C@H]1OC(=O)CCC [dbcAMP, dibutyryl cyclic AMP]
No. of oocytes at the germinal vesicle stage (porcine oocytes [1]; 16 h of culture): 49
oocytes at the germinal vesicle stage (%), percentage (mean ± SEM) of oocytes examined (porcine oocytes [1]; 16 h of culture): 77.8% and 77.8 ± 3.2%
No. of oocytes at the germinal vesicle stage (porcine oocytes [1]; 20 h of culture): 43
oocytes at the germinal vesicle stage (%), percentage (mean ± SEM) of oocytes examined (porcine oocytes [1]; 20 h of culture): 72.9% and 72.9 ± 10.4%
No. of oocytes at the germinal vesicle stage (porcine oocytes [1]; 24 h of culture): 33
oocytes at the germinal vesicle stage (%), percentage (mean ± SEM) of oocytes examined (porcine oocytes [1]; 24 h of culture): 54.1 ± 7.0%
No. of oocytes at the germinal vesicle stage (porcine oocytes [1]; 42 h of culture): 27
oocytes at the germinal vesicle stage (%), percentage (mean ± SEM) of oocytes examined (porcine oocytes [1]; 42 h of culture): 44.3% and 44.3 ± 2.6%
effect of addition of dbcAMP on the percentage of GV oocytes versus absence (porcine oocytes [1]; at each culture period (16, 20, 24, 42 h), P<0.05): increased
effect of addition of dbcAMP on the percentage of M II oocytes versus absence (porcine oocytes [2]; at 10 h of additional culture, P<0.05): decreased
No. of oocytes at the metaphase II stage (porcine oocytes [2]; [4]): 30
oocytes at the metaphase II stage (%), percentage (mean ± SEM) of oocytes examined (porcine oocytes [2]; [4]): 35.3% and 35.3 ± 9.2%
No. of oocytes at the metaphase II stage (porcine oocytes [2]; [5]): 25
oocytes at the metaphase II stage (%), percentage (mean ± SEM) of oocytes examined (porcine oocytes [2]; [5]): 29.8% and 29.8 ± 1.4%
No. of oocytes at the metaphase II stage (porcine oocytes [2]; [6]): 54
oocytes at the metaphase II stage (%), percentage (mean ± SEM) of oocytes examined (porcine oocytes [2]; [6]): 67.5% and 67.5 ± 8.4%
No. of oocytes at the metaphase II stage (porcine oocytes [2]; [7]): 69
oocytes at the metaphase II stage (%), percentage (mean ± SEM) of oocytes examined (porcine oocytes [2]; [7]): 85.2 ± 5.0%
difference in mean numbers of cells in the blastocysts between presence and absence of dbcAMP treatment ([3]; 42-h-matured oocytes): no significant difference
difference in percentages of fused cell-oocyte complexes, cleaved embryos and embryos developed to blastocysts between presence and absence of dbcAMP treatment ([3]; 42-h-matured oocytes): no significant differences
Mean no. ± SEM of cells in blastocysts ([3]; oocytes treated with 1 mM dbcAMP for 20 h, 42-h-matured, blastocysts at end of culture): 49.0 ± 7.0
No. of embryos developed to ≧2-cell [3, 8]: 48
embryos developed to ≧2-cell (%), percentage (mean ± SEM) of complexes fused [3, 8]: 41.4 ± 8.3%
No. of embryos developed to Blastocyst [3, 9]: 2
embryos developed to Blastocyst (%), percentage (mean ± SEM) of complexes fused [3, 9]: 1.7 ± 1.5%
No. of complexes fused [3, 10]: 116
complexes fused (%), percentage (mean ± SEM) of complexes treated [3, 10]: 80.0 ± 4.5%

Reference: US20030217378A1, “Cloning using rapidly matured oocytes” (The University of Georgia Research Foundation, Inc, priority 2002, published 2003)
